Where a chain is given by its changes, count along the chain named.
Columns and labels:
CPT II variant P50H [1] = molecular target: T1, CPT II variant P50H (Homo sapiens, UniProt P23786, P50H); test: Lipid binding assay (membrane lipid strips); conditions: 0.4 mg enzyme, 100 pmol lipid spots
T1 construct: made in house; host or cells: Escherichia coli BL21Gold DE
T1 sequence (P23786 26-658 P50H): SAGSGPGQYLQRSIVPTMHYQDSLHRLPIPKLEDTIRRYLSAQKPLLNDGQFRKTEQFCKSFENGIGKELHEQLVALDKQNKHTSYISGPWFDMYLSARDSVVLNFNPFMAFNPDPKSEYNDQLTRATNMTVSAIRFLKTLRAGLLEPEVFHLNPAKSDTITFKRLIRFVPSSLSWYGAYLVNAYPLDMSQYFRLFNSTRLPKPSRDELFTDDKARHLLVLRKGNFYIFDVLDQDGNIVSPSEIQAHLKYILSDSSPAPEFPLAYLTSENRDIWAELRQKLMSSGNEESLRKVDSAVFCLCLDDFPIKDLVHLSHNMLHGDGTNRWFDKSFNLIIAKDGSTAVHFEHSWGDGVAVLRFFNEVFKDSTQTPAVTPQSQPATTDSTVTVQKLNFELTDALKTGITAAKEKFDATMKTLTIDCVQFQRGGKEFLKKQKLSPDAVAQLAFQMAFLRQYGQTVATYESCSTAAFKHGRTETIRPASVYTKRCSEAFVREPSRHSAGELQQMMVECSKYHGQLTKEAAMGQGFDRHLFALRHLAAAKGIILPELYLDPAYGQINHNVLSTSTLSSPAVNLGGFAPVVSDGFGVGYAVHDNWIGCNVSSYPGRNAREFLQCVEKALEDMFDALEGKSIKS
Experimental: (§1) Direct interaction of CPT II WT and variants with phospholipids of the mitochondrial membrane was assessed using membrane lipid strips (Echelon Biosciences, Salt Lake City, Utah, USA). The membrane was spotted with 100 pmol of various cell membrane lipids. The assay was performed following manufacturer’s instructions with some modifications explained in the following. At first, the membrane was washed twice in phosphate buffered saline (PBS). After 1 h incubation with blocking solution (3% BSA fatty acid-free in PBS) at room temperature, the membrane was incubated with purified CPT II WT or variant (final amount 0.4 mg protein) for 2 h at 4 °C. After three washing steps, a-His-Probe (H3) mouse monoclonal antibody (Santa Cruz Biotech, Santa Cruz, CA, USA, 1:1000 dilution in PBS containing 3% BSA) was added to the membrane over night at 4 °C. The membrane was washed three times with PBS and incubated with mouse IgG horseradish peroxidase-linked whole antibody (from sheep, Amersham, Little Chalfont, Buckinghamshire, UK) for 1 h at 4 °C. The interaction was visualized by ECL Western blotting detection reagents (Amersham, Little Chalfont, Buckinghamshire, UK).

CPT II variant S113L [2] = molecular target: T2, CPT II variant S113L (Homo sapiens, UniProt P23786, S113L); test: Lipid binding assay (membrane lipid strips); conditions: 0.4 mg enzyme, 100 pmol lipid spots
T2 construct: made in house; host or cells: Escherichia coli BL21Gold DE
T2 sequence (P23786 26-658 S113L): T1 sequence (P23786 26-658 P50H) with H25P, S88L
Experimental: as §1

CPT II variant P50H [3] = molecular target: T1, CPT II variant P50H; test: nanoDSF protein stability in presence of CL or β-OG; type: binding; conditions: 1 mg/mL protein
Experimental: (§2) NanoDSF is a standard method for the investigation of the folding/unfolding of proteins and the interaction of proteins with effectors/ligands/substrates
(§3) The protein stability was investigated applying nano differential scanning fluorimetry (nanoDSF) using a protein concentration of 1 mg/mL in assay buffer. […] The heating rate has been set to 1 °C per min. A heating ramp from 15 to 95 °C was determined. The nanoDSF data were obtained using a Prometheus NT.48 device. First derivatives were calculated using PR.ThermControl software (NanoTemper Technologies GmbH, Munich, Germany). Experiments were performed at least three times independently as double determination.

CPT II WT [4] = molecular target: T3, CPT II WT (Homo sapiens, UniProt P23786); test: as above; type: binding
T3 construct: made in house; host or cells: Escherichia coli BL21Gold DE
T3 sequence (P23786 26-658): T1 sequence (P23786 26-658 P50H) with H25P
Experimental: as §2, §3

CPT II variant Y479F [5] = molecular target: T4, CPT II variant Y479F (Homo sapiens, UniProt P23786, Y479F); test: as above; type: binding
T4 construct: made in house; host or cells: Escherichia coli BL21Gold DE
T4 sequence (P23786 26-658 Y479F): T1 sequence (P23786 26-658 P50H) with H25P, Y454F
Experimental: as §2, §3

CPT II variant S113L [6] = molecular target: T2, CPT II variant S113L; test: as above; type: binding
Experimental: as §2, §3

CPT II WT [7] = molecular target: T3, CPT II WT; test: Lipid binding assay (membrane lipid strips); conditions: 0.4 mg enzyme, 100 pmol lipid spots
Experimental: as §1

CPT II variant Y479F [8] = molecular target: T4, CPT II variant Y479F; test: Lipid binding assay (membrane lipid strips); conditions: 0.4 mg enzyme, 100 pmol lipid spots
Experimental: as §1

[9] = reference TM of WT in buffer (ΔTM = 0 °C)

Signal for interaction on membrane lipid strips (CPT II variant P50H [1]) | Signal for interaction on membrane lipid strips (CPT II variant S113L [2]) | Signal for interaction on membrane lipid strips (CPT II WT [7]) | Signal for interaction on membrane lipid strips (CPT II variant Y479F [8]) | Compound | other results
reduced | – | – | – | phosphatidylserine [PS] | –
No signal | interaction with PI was detected | interaction with PI was detected | interaction with PI was detected | phosphatidylinositol [PI] | –

More lines, now with the values behind:

Compound | Signal for interaction on membrane lipid strips (CPT II variant P50H [1]) | Signal for interaction on membrane lipid strips (CPT II variant S113L [2]) | Signal for interaction on membrane lipid strips (CPT II WT [7]) | Signal for interaction on membrane lipid strips (CPT II variant Y479F [8]) | other results
phosphatidylglycerol [PG] | lower detection signal | lower detection signal | – | – | –
CCCCCCCCO[C@@H]1O[C@H](CO)[C@@H](O)[C@H](O)[C@H]1O [β-OG, n-octyl-β-d-glucopyranoside] | – | – | – | – | TM in Buffer with 1 % β-OG (CPT II variant P50H [3]): 43.5 ± 0.4 °C; TM in Buffer with 1 % β-OG (CPT II WT [4]; 1 mg/mL protein): 49.9 ± 0.7 °C; ∆TM in Buffer with 1 % β-OG (CPT II WT [4]; [9]): 13.0 ± 0.7 °C; TM in Buffer with 1 % β-OG (CPT II variant Y479F [5]; 1 mg/mL protein): 49.0 ± 0.5 °C; ∆TM in Buffer with 1 % β-OG (CPT II variant Y479F [5]; [9]): 12.1 ± 0.5 °C; TM in Buffer with 1 % β-OG (CPT II variant S113L [6]; 1 mg/mL protein): 45.3 ± 0.6 °C; ∆TM in Buffer with 1 % β-OG (CPT II variant S113L [6]; [9]): 8.4 ± 0.6 °C
phosphatidylinositol (4,5)-bisphosphate [PtdIns(4,5)P2] | highest signal | highest signal | highest signal | highest signal | –
phosphatidylinositol (3,4,5)-trisphosphate [PtdIns(3,4,5)P3] | highest signal | highest signal | highest signal | highest signal | –

Reference: PMC8125234, “Cardiolipin Stabilizes and Increases Catalytic Efficiency of Carnitine Palmitoyltransferase II and Its Variants S113L, P50H, and Y479F” (International Journal of Molecular Sciences, 2021)
